# Data: paper PMC6844378, “Structure activity relationship studies on Amb639752: toward the identification of a common pharmacophoric structure for DGKα inhibitors” (Journal of Enzyme Inhibition and Medicinal Chemistry, 2019)
# Experiments:
# SAP-deficient T cells = test: RICD assay in SAP silenced T cells; type: cell-based, human; details: 10 µM, 30 min pre-treatment, OKT3 10 ng/mL, 24 h; for rescue of RICD (apoptosis) in SAP-deficient T cells: SAP siRNA
# Experimental: PBL were isolated from healthy anonymous human donors by Ficoll-Paque PLUS (GE Healthcare, Chicago, IL) density gradient centrifugation, washed, and resuspended at 2 × 10^6 cell/mL in RPMI-GlutaMAX containing 10% heat inactivated FCS, 2 mM glutamine, and 100 U/mL of penicillin and streptomycin. T cells were activated with 1 µg/mL anti-CD3 (UCHT1) and anti-CD28 (clone CD28.2) antibodies. After three days, activated T cells were washed and cultured in medium additionated of 100 IU/mL rhIL-2 (Peprotech, Rocky Hill, NJ) at 1.2 × 10^6 cells/mL for ≥7 days by changing media for every 2–3 days.
# Activated human PBLs were transfected with 200 pmol of siRNA oligonucleotides specific for the target protein (Stealth Select siRNA; Life Technologies, Carlsbad, CA) or a non-specific control oligo (Life Technologies, Carlsbad, CA). Transient transfections were performed using Amaxa nucleofector kits for human T cells (Lonza, Basel, Switzerland) and the Amaxa Nucleofector II or 4D systems (programmes T-20 or EI-115). Cells were cultured in IL-2 (100 IU/mL) for four days to allow target gene knockdown. Knockdown efficiency was periodically evaluated by Western blotting.
# To test restimulation induced cell death, activated T cells (10^5 cells/well) were plated in triplicate in 96-well round-bottom plate and treated with anti-CD3 (clone OKT3) (10 ng/mL) in RPMI-GlutaMAX supplemented with 100 IU/mL rhIL-2 for 24 h. In these assays, inhibitors (10 µM) were added 30 min before the restimulation with OKT3. 24 h after treatment, cells were stained with 20 ng/mL propidium iodide and collected for a constant time of 30 s per sample on Attune Nxt Flow Cytometer (Thermo Fisher Scientific, Waltham, MA). Cell death is expressed as % cell loss and calculated as: % cell loss=(1−(number of viable cells in sample/number of viable cells in control)×100)
# Results were expressed as mean ± standard error of the mean (SEM). We always compared controls and SAP silenced lymphocytes from the same donors as there is a large individual variability in RICD sensitivity.
# To evaluate inhibitor efficacy in physiological context, we modelled XLP-1 by silencing SAP in primary peripheral blood T lymphocytes (PBLs) and restimulating them with anti-CD3 antibody (OKT3 10 ng/mL, 24 h). We pre-treated the cells with the indicated inhibitors for 30 min at a concentration of 10 µM[8].
# Figure 9. DGKα inhibitors partially restores apoptosis in SAP deficient lymphocytes. […] After 4 days, the cells were restimulated with CD3 agonist OKT3 (10 ng/mL) in presence of respective inhibitor. Vehicle (DMSO) was used as control. Twenty-four hours later, the % of cell loss was evaluated by PI staining. Data are the mean ± SEM of nine independent experiments performed in triplicate.
# DGKα = DGKα (Homo sapiens, UniProt P23743); test: DGK assay on OST-DGKα enriched MDCK homogenates; type: biochemical; design: expressed in transfected cells; host or cells: MDCK cells (vector-infected, doxycycline-induced), crude homogenate; details: for remaining activity at 100 µM: percentage of residual DGKα activity compared to DMSO control, OST-DGKα overexpressing cell lysates, saturating DAG and ATP, read-out: Residue activity at 100 µM; for IC50: residual OST-DGKα activity at 0.1, 1.0, 10.0 and 100.0 µM
# DGKα, sequence (P23743 whole entry): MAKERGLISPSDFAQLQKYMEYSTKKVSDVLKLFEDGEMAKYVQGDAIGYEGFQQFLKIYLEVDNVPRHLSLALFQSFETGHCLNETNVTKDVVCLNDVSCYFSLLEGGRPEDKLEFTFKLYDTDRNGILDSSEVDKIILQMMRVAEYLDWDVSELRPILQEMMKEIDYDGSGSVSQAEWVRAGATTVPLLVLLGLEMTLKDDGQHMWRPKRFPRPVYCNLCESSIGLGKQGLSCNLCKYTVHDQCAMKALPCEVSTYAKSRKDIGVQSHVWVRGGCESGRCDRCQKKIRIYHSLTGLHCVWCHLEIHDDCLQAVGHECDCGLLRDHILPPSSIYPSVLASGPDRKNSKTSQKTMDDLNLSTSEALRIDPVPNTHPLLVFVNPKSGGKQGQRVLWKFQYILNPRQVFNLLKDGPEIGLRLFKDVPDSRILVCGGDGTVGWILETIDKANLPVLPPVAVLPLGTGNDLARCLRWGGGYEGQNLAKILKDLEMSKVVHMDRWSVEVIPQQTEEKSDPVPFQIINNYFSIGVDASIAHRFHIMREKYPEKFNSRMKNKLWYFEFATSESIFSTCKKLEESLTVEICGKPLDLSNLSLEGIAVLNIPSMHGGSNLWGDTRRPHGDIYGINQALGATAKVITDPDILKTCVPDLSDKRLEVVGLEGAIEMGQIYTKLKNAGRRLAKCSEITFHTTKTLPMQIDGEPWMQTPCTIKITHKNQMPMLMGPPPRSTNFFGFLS
# Experimental: Madin-Darby canine kidney (MDCK) cells stably expressing One Strep Tag DGKα (OST-DGKα) were prepared by infecting MDCK cells with a vector expressing an inducible OST tagged DGKα constructs. MDCK cells infected with empty vector were used as controls. MDCK cells were cultured in MEM (minimal essential medium) with 5% FBS (foetal bovine serum) and 1% antibiotic–antimycotic solution. Routinely, cells were splitted every 3–4 days with trypsin–EDTA 0.25% in standard 100 mm dishes.
# Large cultures of MDCK cells for enzyme preparation were done by plating 5 × 10^6 cells in 245 mm^2 dishes. Once they reached nearly 70% confluence, cells were treated with doxycycline (1 µg/mL, two days). […] Cells were collected with a rubber scraper, homogenised by passing them through a 29 G-needle syringe 20 times and stored in aliquots at –80 °C. Presence of OST-DGKα was confirmed by western blotting and enzyme assay, transduced DGKα has an activity >100 folds the endogenous DGK.
# Essentionally, the same procedure was followed as reported previously in Velnati et al.[9] In brief, DGK activity was assayed by measuring initial velocities (5 min at 27 °C) in presence of saturating substrate concentrations. Reaction conditions: 0.9 µg/µL 1,2-dioleoyl-sn-glycerol, 5 mM ATP, 0.01 µCi/µL [γ^32P]-ATP, 1 mM sodium orthovanadate, 10 mM MgCl2, 1.2 mM EGTA in 7.5 mM Hepes pH 8[12]. Reaction mixture is assembled mixing enzyme (24.5 µL of homogenate), 100× inhibitor or DMSO (0.5 µL), 5× ATP solution (10 µL of 25 mM ATP, 0.05 µCi/µL [γ^32P]-ATP (Perkin-Elmer, Milan, Italy), 5 mM sodium orthovanadate, 50 mM MgCl2), and 3.3× DAG solution (15 µL of 3 µg/µL 1,2-dioleoyl-sn-glycerol resuspended by sonication in 4 mM EGTA in 25 mM Hepes pH 8). The reaction was stopped after 5 min by adding 200 µL of freshly prepared 1 M HCl and lipid was extracted by adding 200 µL of CH3OH:CHCl3 1:1 solution and vortexing for 1 min. The two phases were separated by centrifugation (12,000 RCF for 2 min). Twenty-five microlitres of the lower organic phase was spotted in small drops on silica TLC plates. TLC was run 10 cm and dried before radioactive signals were detected by GS-250 molecular imager and was quantified by quantity one (Bio-Rad, Hercules, CA) software assuring the absence of saturated spots.
# Percentage residual activity was calculated as follows: (OST-DGKα homogenate with inhibitor – vector homogenate)/(OST-DGKα homogenate with DMSO – vector homogenate)×100.
# Data for the screen on OST-DGKα homogenates are the mean of duplicates. The compounds showing inhibitory activity in this assay were tested >4 times and the mean ± SEM is reported.
# To calculate IC50 values of active inhibitors, the inhibitor activity was measured at least three times at 0.1, 1.0, 10.0, and 100.0 µM concentration. Data were analysed using [inhibitor] vs. normalised response parameters with least square [ordinary] curve fitting method in GraphPad PRISM 8.0 software (GraphPad Software, La Jolla, CA) mentioning 95% confidence interval and IC50 values always greater than 0.0. […] In all the experiments, the data were normalised with the controls.
# Each inhibitor was tested in duplicate at least once, and DGKα activity was expressed as percentage of residual DGKα activity compared to DMSO control in the same assay. Assay uses OST-DGKα overexpressing cell lysates in presence of saturating exogenous DAG and ATP. We considered R59022 (commercially available) and the lead compound Amb63975230 as our reference molecules.
# To measure the inhibitor potency, we determined the IC50 values for the compounds that resulted active when tested at 100 µM by measuring the residual OST-DGKα activity over a dose range of inhibitor concentrations (0.1 µM, 1.0 µM, 10.0 µM, and 100.0 µM).
inhibition at 100 µM (DGKα; 100 µM) [%],remaining activity at 100 µM (DGKα; 100 µM) [%],IC50 (DGKα) [nM],SMILES,effect on RICD in control siRNA-transfected cells (SAP-deficient T cells),rescue of RICD (apoptosis) in SAP-deficient T cells (SAP-deficient T cells)
96,4,6900 ± 3000,Cc1ccc2c(C(=O)CN3CCN(C(=O)c4ccco4)CC3)c(C)[nH]c2c1 [Amb639752],slightly reducing,
,6,1600,"Cc1ccc2c(C(=O)CN3CCN(C(=O)c4ccc(Cl)cc4)CC3)c(C)[nH]c2c1 [Compound 11, 2-(4-(4-Chlorobenzoyl)piperazin-1-yl)-1-(2,6-dimethyl-1H-indol-3-yl)ethan-1-one]",slightly reducing,restore apoptosis
,3,1800,"Cc1ccc(C(=O)N2CCN(CC(=O)c3c(C)[nH]c4cc(C)ccc34)CC2)cc1 [Compound 20, 1-(2,6-Dimethyl-1H-indol-3-yl)-2-(4-(4-methylbenzoyl)piperazin-1-yl)ethan-1-one]",,restore apoptosis
